Values after ≈ are worked out from the molar mass of the structure shown. Where two headings read alike, the source gives them in different places.
What was measured:
[1] = rats, intraperitoneal injection; cited from earlier work
[2] = test system: HMGR; assay: HMGR transcription by qPCR in infected Huh7.5.1 cells; type: cell-based, human; conditions: naringenin 24 hours, infected Huh-7.5.1 cells
[3] = test system: ApoB; assay: ApoB secretion by primary human hepatocytes (human ApoB ELISA); type: cell-based; conditions: 200 μM naringenin, 24 hours
Description: The Huh-7.5.1 human hepatoma cell line and a plasmid containing the JFH-1 genome were kindly provided by Dr. Chisari (Scripps Research Institute, CA) and Dr. Wakita (National Institute of Infectious Diseases, Tokyo) respectively. Huh-7.5.1 cells were cultured in DMEM medium supplemented with 10% FBS, 200 units/ml penicillin and […] streptomycin in a 5% CO2-humidified incubator at 37° C. In vitro transcribed genomic JFH-1 RNA was delivered to cells by liposome-mediated transfection as described by Zhong et al. (2005)(8). Infected Huh-7.5.1 cells were passaged every 3 days and used at passage <15. The presence of HCV in these cells and corresponding supernatants were determined by quantitative Polymerase Chain Reaction (qPCR) and immunofluorescence staining. Primary human hepatocytes were purchased from BD Biosciences (San Jose, Calif.) cultured on a collagen-coated 12 well plate in C+H culture media composed of DMEM supplemented with 10% heat-inactivated FBS, 200 U/mL penicillin/streptomycin, 7.5 μg/mL hydrocortisone, 20 ng/mL EGF, 14 ng/mL glucagons and 0.5 U/mL insulin. […]
Huh-7.5.1 and primary human hepatocytes secreted ApoB was detected in the media using ALerCHEK, Inc (Portland, Me.) total human ApoB ELISA kit. […]
To assess the potential of naringenin-based treatment, we measured ApoB secretion in primary human hepatocytes following 24 hours stimulation with naringenin. […]

[4] = physchem; conditions: 37 °C, water, thermodynamic from solid, naringenin solubility in water
[5] = 400 mg/day oral, hypercholesterolemic patients; cited from earlier work
[6] = test system: PPARα; assay: PPARα transcription in infected Huh7.5.1 cells; type: cell-based, human; conditions: short term 24 hours stimulation of Huh7.5.1 cells
Description: Virus samples collected in each experiment were filtered with a 0.45 μm filter and a volume of 100 μL for each sample was heated at 95° C. for 45 min. The reverse transcription reaction step was performed on a Mastercycler epgrdientS (Eppendorf) instrument using Omniscript and Sensiscript RT Kits (Qiagen). Real time PCR was performed on a Light Cycler LC-24 (Idaho Technology), using SuperScript™ III Platinum® CellsDirect Two-Step qRT-PCR Kits (Invitrogen) for quantitative PCR. For reverse transcription step, 2 μL of sample without RNA extraction were used. For real time PCR, 1 μL of the reverse transcription reactions was used. All reactions were performed according to the manufacturer's instructions using the primers detailed in Table 1.
PPARα and LXRα are ligand-activated transcription factors which control much of the fasted-to-fed transition and were previously shown to be important in the development of inflammation and insulin resistance. […] Following a short term 24 hours stimulation of Huh7.5.1 cells PPARα transcription increased by 86%, while LXRα was decreased by 25%. PPARα is the target of fibrates and plays a major role in the downregulation of inflammation, increasing sensitivity to insulin, and modulating dyslipidemia.

[7] = test system: MTP; assay: MTP mRNA level by qPCR in infected Huh7.5.1 cells; type: cell-based, human; conditions: naringenin 24 hours
[8] = guinea pigs, intraperitoneal injection; cited from earlier work
[9] = test system: Caco-2 cell monolayer; assay: Transport across Caco-2 cell monolayer (apical to basolateral); type: in vitro ADME; conditions: human, Caco-2, 2 h, pH 7.35
Description: The Caco-2 cell line is an immortalized line of human epithelial colorectal adenocarcinoma cells, which is widely used by the pharmaceutical industry to predict the absorption rate of candidate drug compounds across the intestinal epithelial cell barrier. Caco-2 cells were grown and allowed to form confluent monolayers on transwell filters for 21 days as previously described^39. In detail, Caco-2, human epithelial colorectal adenocarcinoma cells were cultured in tissue culture flasks (Becton Dickinson and Co., Lincoln Park, N.J.). The growth medium was Dulbecco's modified Eagle's medium supplemented with 10% fetal bovine serum, 1% nonessential amino acids, and 4 mM glutamine without antibiotics. The monolayer cultures were grown in a CO2 incubator (5% CO2) at 37° C. The cells were harvested with 0.25% trypsin and 0.2% EDTA (0.5 to 1 min at 37° C.), resuspended, and seeded into a new flask. Cells between 30 to 53 passages were used.
For the transport studies, Caco-2 cells were seeded on Transwell (0.4-μm pore size, 1-cm^2 growth area; Corning Costar Co.) at a cell density of 1×10^5 cells/filter. Cell growth and maintenance was kept as previously described (98). […] The concentrations of Naringenin or HPbCD-Neringenin were determined as described and plotted as a concentration on the basolateral side vs. time. […]

Compound: O=C1C[C@@H](c2ccc(O)cc2)Oc2cc(O)cc(O)c21 [naringenin]
- LD50 (50% kill) [1]: 2000 mg/kg
- reduction of HMGR transcription [2]: 57%±3%
- decrease in ApoB secretion [3]: 60%±7%
- solubility [4]: 40 µM (≈ 10.9 µg/mL)
- lowering of LDL levels [5]: 17%
- increase of PPARα transcription [6]: 86%
- MTP mRNA level [7]: remained unchanged
- LD50 (50% kill) [8]: 2000 mg/kg
- maximal naringenin concentration in basal chamber [9]: 0.05 mM

Reference: US20160228575A1, “NARINGENIN COMPLEXES AND METHODS OF USE THEREOF” (THE GENERAL HOSPITAL CORPORATION, priority 2008, published 2016)
